From patent publication US11807895B2, “High-throughput drug and genetic assays for cellular transformation” (THE BROAD INSTITUTE, INC., priority 2015, dated 2023)
Entries after “also recorded” stand apart in the source; their conditions may differ. Where a name gives a salt, the structure may show the parent alone.

Tests used:
[1] = test system: fibroblasts transformed with TERT, SV40 T-antigen, and H-RAS; experiment: GILA (growth in low attachment) drug screen, ATP/CellTiter-Glo viability; type: cell-based, human; conditions: 633 kinase inhibitors and FDA-approved drugs screened at 30 μM or 10 μM, 5 days
Description: To identify drugs specifically inhibiting the oncogenic state of fibroblasts transformed with TERT, SV40 T-antigen, and H-RAS (Hahn W C, et al. (1999) Creation of human tumour cells with defined genetic elements. Nature 400:464-468.), GILA was used as a primary screen and growth on standard high-attachment plates as a counterscreen.
Transformed fibroblast cells were maintained as subconfluent monolayers, trypsinized, and seeded in 96-well plates (for analytical assays, FIG. 14) or in 384-well white plates (for screens, FIG. 3). The cell concentration was optimized to 1000 cells/well in 100 μl medium (for 96-well plate) or 50 cells/well in 30 μl growth medium (for 384-well plate). Two types of plates were used in the screens: high-attachment conditions (Corning, 3704) and Ultra Low-attachment (Sumitomo, PrimeSurface384U). Cells were seeded automatically using the liquid rapid dispenser Metrix WellMate (Thermo). Two small molecule libraries (NIH Clinical Collection 1-2013 and Kinase Inhibitor Focused Library) were transferred to each microplate, at 100 nl drug per well, to final concentration of 30 μM or 10 μM, respectively, by using the robotic transfer system (Seiko Epson) and pin array (V&P). Controls were added by multichannel pipette. After 5 days of incubation at 37° C. in 5% CO2, the cells were assayed for ATP content. […] The secondary screen was conducted similarly, except that an HP D300 Digital Liquid Dispenser and T8 dispenseheads (HP) was used to add 4 different concentrations of small molecules to the cells.
Crosstalk corrected values from EnVision reader were used to normalize the luminescence from each wells.

[2] = test system: ascites-derived ovarian cancer cells from patients; experiment: Ex-vivo GILA drug sensitivity of patient-derived cancer cells; type: cell-based, human; conditions: for inhibitory activity in ex-vivo GILA assay: 5 patients who failed multiple lines of treatment, 5000 cells per well, 72 hours; for dose dependence of viability in ex-vivo GILA: ovary cancer patient derived cells
Description: Patient-derived ovarian cancer cells are sensitive to FDA-approved drugs identified in the GILA-based screen. […] Immediately after procurement, ascites samples were processed and 5000 cells per well were flow-sorted into 96-well microtiter plates with low or high-attachment surfaces containing 100 μl of growth medium per well.
Cell viability was measured with the CellTiter-Glo (Promega) luminescent assay, using the EnVision Plate Reader (PerkinElmer) or the SpectraMax M5 Multi-Mode Microplate Reader (Molecular Devices). For high-attachment growth, tissue culture-treated 96-well clear plates (#3997, Corning) were used, while for the GILA assay low attachment surface plates (#3474, Corning) of 96-well clear plates were used for 3 to 5 days. Later the cells were moved to 96-Well Solid White Polystyrene Microplate (#3362, 14 Corning) for reading luminescence signal. To avoid bleeding of luminescence between the wells, every other well left empty in the solid white microplate. 30 μl of CTG reagent was used for 384-well microplates, and 100 μl for 96-well microplates. The cells were moderately shaken for 5 minutes in the reagent, followed by incubation for 20 minutes to ensure cell lysis. No background signal was detected from wells containing only culture medium.
Under an institutional review board approved protocol, freshly discarded ascites from patients with advanced stage ovarian cancers was collected from 5 individuals. Ascites fluid was immediately transferred on ice for further processing. Samples were spun down and red blood cells were removed with hypotonic lysis using ACK lysing buffer (Life Technologies). Cells were filtered through a 40 μm mesh and washed in PBS with 2% FBS and subjected to staining for FACS.
Cells were prepared per standard protocols, stained with Calcein-AM, CD45-FITC, EPCAM-PE and CD24-PE/Cy7 and incubated for 20 minutes on ice. Cells were washed with […] prior to flow-sorting. After doublet discrimination and compensation for spectral overlap, single, viable cells, negative for CD45 and positive for EPCAM and CD24 were flow-sorted into wells (96 well plates) prepared with growth 15 medium. Samples were sorted on a BD FACSAria SORP and analyzed using BD FACSDiva Software (BD Biosciences).

[3] = test system: IL-6; conditions: Hong et al. 2012: LPS-stimulated mouse macrophages and TG-injected mice; cited from earlier work
[4] = listed as Azelastine hydrochloride, hydrochloride

SMILES	hit in GILA-based drug screen (inhibits growth in low attachment, less pronounced effect on high attachment) [1]	further results
Cc1cccc(-c2[nH]ncc2-c2ccc3ncccc3n2)n1 [RepSox]	identified and validated in the drug screen	
CC(C)CC(N(C)C)C1(c2ccc(Cl)cc2)CCC1 (stereo not drawn) [sibutramine]	top hits	
CC(=O)Oc1ccccc1C(=O)Nc1ncc([N+](=O)[O-])s1 [nitazoxanide]	top hits; also recorded: identified and validated in the drug screen	inhibitory activity in ex-vivo GILA assay [2]: demonstrated inhibitory activity; IL-6 suppression [3]: suppresses IL-6
CN1CCCC(n2nc(Cc3ccc(Cl)cc3)c3ccccc3c2=O)CC1 (stereo not drawn) [azelastine hydrochloride]	identified and validated in the drug screen	inhibitory activity in ex-vivo GILA assay [2, 4]: highly effective at inhibiting growth; inhibitory activity in ex-vivo GILA assay ([2]; listed as azelastine, hydrochloride): demonstrated inhibitory activity; dose dependence of viability in ex-vivo GILA ([2]; hydrochloride): dose dependent response; dose dependence of viability in ex-vivo GILA [2, 4]: concentration-dependent viability
COc1ccc(-c2cc(=O)c3c(OC)c(OC)c(OC)c(OC)c3o2)cc1OC [nobiletin]	identified and validated in the drug screen	
C=C1/C(=C\C=C2/CCC[C@]3(C)[C@@H]([C@H](C)/C=C/[C@@H](O)C4CC4)CC[C@@H]23)C[C@@H](O)C[C@@H]1O [calcipotriol]	top hits	
